Laboratory results published in ChEMBL document CHEMBL4507281, “Data for DCP probe BI-4394” (2021).

How the values were obtained:
Settings in all cases: Compound concentration 10.0 uM
[1] = target: T1, Serine/threonine-protein kinase Nek1 (Homo sapiens) (UniProt Q96PY6)
T1 sequence (whole entry): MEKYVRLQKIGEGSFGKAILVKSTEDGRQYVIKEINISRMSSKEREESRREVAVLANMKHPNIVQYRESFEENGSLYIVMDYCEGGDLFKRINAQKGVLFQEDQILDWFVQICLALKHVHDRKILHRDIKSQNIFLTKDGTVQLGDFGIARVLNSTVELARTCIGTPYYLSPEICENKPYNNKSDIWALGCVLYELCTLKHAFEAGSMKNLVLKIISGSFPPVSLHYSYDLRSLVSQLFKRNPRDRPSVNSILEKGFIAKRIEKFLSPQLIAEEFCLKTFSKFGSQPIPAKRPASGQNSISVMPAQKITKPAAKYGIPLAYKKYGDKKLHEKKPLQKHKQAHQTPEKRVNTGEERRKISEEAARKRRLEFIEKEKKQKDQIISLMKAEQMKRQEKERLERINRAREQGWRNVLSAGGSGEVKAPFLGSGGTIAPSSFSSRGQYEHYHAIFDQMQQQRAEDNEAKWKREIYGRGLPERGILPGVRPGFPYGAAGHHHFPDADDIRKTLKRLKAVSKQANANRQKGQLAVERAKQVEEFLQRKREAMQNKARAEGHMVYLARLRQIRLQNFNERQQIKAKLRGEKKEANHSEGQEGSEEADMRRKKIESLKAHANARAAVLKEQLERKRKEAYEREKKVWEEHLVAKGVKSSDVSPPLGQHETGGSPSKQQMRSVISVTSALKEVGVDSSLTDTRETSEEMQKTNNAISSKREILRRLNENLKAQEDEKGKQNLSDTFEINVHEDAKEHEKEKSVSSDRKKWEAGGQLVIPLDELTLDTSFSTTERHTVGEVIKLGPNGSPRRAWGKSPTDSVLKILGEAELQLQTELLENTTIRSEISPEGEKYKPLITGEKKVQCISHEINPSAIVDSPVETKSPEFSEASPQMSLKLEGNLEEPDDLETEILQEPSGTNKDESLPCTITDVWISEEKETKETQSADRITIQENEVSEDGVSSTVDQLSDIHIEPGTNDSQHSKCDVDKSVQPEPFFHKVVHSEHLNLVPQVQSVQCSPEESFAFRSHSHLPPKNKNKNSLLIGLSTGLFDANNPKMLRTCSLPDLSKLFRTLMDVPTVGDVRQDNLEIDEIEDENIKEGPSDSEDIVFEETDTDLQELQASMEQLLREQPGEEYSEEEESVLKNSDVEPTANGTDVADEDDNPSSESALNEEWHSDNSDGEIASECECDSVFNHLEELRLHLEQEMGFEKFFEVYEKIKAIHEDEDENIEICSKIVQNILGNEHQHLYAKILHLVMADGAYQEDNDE

[2] = target: Cyclin-dependent kinase 1/cyclin B (Homo sapiens) (UniProt P06493+P14635+Q8WWL7+O95067)
[3] = target: Mitogen-activated protein kinase 14 (Homo sapiens) (UniProt Q16539)
Sequence of Mitogen-activated protein kinase 14 (Homo sapiens) (Q16539 whole entry): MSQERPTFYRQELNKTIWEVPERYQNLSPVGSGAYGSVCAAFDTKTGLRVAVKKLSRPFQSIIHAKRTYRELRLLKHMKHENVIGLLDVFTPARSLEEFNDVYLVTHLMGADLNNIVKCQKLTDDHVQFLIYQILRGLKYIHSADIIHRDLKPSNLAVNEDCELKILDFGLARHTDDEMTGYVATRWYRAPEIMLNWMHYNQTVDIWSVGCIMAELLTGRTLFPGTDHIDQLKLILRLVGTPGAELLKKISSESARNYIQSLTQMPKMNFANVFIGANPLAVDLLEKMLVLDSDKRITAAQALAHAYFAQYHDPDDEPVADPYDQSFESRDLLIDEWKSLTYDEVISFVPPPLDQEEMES

[4] = target: T2, Serine/threonine-protein kinase Chk1 (Homo sapiens) (UniProt O14757)
T2 sequence (whole entry): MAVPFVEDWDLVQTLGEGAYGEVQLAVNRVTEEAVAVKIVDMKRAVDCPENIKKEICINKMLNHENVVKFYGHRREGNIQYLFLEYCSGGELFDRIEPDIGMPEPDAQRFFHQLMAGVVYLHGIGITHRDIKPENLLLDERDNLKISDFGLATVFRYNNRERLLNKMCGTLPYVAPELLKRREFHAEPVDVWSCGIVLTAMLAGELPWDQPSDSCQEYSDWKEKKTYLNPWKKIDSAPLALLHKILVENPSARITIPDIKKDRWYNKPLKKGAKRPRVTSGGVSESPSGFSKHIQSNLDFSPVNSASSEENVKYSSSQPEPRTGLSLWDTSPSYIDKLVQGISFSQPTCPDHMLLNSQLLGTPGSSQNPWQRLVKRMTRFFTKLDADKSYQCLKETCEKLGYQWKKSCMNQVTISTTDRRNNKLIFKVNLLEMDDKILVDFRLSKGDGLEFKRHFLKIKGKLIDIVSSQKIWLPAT

[5] = target: Proto-oncogene tyrosine-protein kinase receptor Ret (Homo sapiens) (UniProt P07949)
Sequence of Proto-oncogene tyrosine-protein kinase receptor Ret (Homo sapiens) (P07949 whole entry): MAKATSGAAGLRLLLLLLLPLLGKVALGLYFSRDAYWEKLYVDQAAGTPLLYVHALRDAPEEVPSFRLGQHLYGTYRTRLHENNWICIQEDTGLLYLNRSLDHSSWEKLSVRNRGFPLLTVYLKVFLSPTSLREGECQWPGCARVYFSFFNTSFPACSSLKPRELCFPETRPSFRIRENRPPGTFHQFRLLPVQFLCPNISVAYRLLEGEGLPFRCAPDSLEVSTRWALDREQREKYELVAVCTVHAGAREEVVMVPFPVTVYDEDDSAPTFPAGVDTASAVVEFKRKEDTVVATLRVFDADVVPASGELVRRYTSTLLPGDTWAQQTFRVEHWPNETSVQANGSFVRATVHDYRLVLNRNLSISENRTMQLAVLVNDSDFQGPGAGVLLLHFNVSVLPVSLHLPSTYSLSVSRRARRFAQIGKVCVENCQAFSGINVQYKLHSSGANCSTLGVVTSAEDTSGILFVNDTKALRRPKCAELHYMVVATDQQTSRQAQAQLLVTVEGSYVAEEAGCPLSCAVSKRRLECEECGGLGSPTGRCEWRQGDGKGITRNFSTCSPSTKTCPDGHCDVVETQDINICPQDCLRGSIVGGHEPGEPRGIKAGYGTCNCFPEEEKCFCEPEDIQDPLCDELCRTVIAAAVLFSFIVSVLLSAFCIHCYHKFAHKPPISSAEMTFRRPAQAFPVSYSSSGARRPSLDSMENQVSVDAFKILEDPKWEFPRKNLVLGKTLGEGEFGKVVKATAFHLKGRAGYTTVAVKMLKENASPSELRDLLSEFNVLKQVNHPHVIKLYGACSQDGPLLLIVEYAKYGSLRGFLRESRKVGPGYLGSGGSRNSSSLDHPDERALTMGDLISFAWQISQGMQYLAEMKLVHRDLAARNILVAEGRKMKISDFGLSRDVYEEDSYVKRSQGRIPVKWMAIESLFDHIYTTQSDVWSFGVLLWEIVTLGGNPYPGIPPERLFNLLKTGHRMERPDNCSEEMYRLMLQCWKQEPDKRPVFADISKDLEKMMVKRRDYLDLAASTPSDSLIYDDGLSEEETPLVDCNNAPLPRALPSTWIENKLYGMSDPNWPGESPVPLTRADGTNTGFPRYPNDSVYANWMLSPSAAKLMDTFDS

[6] = target: Histamine H2 receptor (Homo sapiens) (UniProt P25021)
Sequence of Histamine H2 receptor (Homo sapiens) (P25021 whole entry): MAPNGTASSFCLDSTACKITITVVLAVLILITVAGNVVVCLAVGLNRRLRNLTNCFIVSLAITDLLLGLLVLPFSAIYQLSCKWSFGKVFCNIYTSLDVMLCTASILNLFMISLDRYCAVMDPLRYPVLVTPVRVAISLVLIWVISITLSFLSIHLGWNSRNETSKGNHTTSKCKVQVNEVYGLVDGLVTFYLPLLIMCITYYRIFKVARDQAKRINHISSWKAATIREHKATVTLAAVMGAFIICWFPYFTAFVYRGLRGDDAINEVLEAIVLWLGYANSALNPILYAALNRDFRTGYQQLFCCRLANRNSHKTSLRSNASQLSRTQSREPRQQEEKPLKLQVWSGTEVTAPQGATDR

[7] = target: 5-hydroxytryptamine receptor 1A (Homo sapiens) (UniProt P08908)
Sequence of 5-hydroxytryptamine receptor 1A (Homo sapiens) (P08908 whole entry): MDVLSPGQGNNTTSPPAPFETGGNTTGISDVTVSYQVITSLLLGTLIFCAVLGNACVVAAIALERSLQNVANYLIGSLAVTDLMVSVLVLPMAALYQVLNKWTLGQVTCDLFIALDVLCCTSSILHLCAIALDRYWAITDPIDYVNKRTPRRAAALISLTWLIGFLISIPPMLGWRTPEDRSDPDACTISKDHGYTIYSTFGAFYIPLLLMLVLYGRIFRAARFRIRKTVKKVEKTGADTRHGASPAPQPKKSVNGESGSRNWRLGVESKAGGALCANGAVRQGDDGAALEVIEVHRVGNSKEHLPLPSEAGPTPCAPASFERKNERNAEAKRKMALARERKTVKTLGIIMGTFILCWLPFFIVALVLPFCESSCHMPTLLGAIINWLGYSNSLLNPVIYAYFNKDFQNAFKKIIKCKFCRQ

Compound	residual activity [1]	residual activity [2]	residual activity [3]	residual activity [4]	residual activity [5]	inhibition [6]	inhibition [7]
CCOC(=O)c1cc2cc(-c3cc(C(=O)NCc4ccc(C(=O)O)cc4)nn3C)ccc2[nH]1 [BI 4394]	49%	88%	6%	94%	64%		
Cn1nc(C(=O)NCc2ccc(C(=O)O)cc2)cc1-c1ccc2[nH]ccc2c1 [BI 4395]						8.57%	22.7%
